Measurements reported in patent US20240336563A1, “G-ALPHA-S INHIBITORS AND USES THEREOF” (The Regents of the University of California, priority 2021, published 2024).
“Also recorded” adds a separate entry of the source.

What was measured:
[1] = target: GDP-bound Gαs(R201C/C237S) (Homo sapiens, UniProt P63092, C237S/R201C); test: Adenylyl cyclase-activating activity of Acr-modified Gαs; assay type: biochemical; conditions: in the presence of GDP and Gβ1/Gγ2(C68S), free Acr removed by gel filtration
Protocol: (§1) FIGS. 3A-3C show modification of C201 by acrylamide. […] The data represents the mean SE of three independent measurements. […] The data represents the mean±SD of at least three independent measurements.
(§2) Also effect of modifying C201 with Acr on the adenylyl cyclase-activating activity of GDP-bound Gαs(R201C/C237S) was calculated. […] The kcat of Gαs(C237S) is 1.539±0.153 min^−1 (measured at 0° C.), slightly higher than that of WT Gαs (FIG. 3C). […] Following Acr modification of the R201C/C237S mutant its kcat increased to 0.471±0.043 min^−1 (measured at 0° C.), about 30% of that of Gαs(C237S).

Gαs(R201C/C237S) [2] = target: T1, Gαs(R201C/C237S) (Homo sapiens, UniProt P63092, C237S/R201C); test: Cysteine modification by acrylamidine; assay type: binding; conditions: R201C/C237S double mutant
From the text: (§3) The R201C mutation results in the loss of ammonium η1 and η2 of R201 thus freeing E50 to interact with R258 and R265 to indirectly stabilize switch II in an active-like conformation. Based on this finding, replacing the side chain of R201C with a close mimic of native arginine which contains N(η1) and N(η2) may correct the misactivation of the R201C mutant. […] This modification converts cysteine to an arginine mimic (FIG. 3A).

Gαs(R201C) = Gαs(R201C) (Homo sapiens, UniProt P63092, R201C); test: Cysteine modification by acrylamidine; assay type: binding; conditions: R201C mutant
From the text: as §3

Gαs(R201C/C237S) [3] = target: T1, Gαs(R201C/C237S); test: Single turnover GTPase activity of Acr-modified Gαs; assay type: biochemical
Protocol: as §1, §2

T1 sequence (P63092 7-380 isoform P63092-2 R187C/C223S limits assumed): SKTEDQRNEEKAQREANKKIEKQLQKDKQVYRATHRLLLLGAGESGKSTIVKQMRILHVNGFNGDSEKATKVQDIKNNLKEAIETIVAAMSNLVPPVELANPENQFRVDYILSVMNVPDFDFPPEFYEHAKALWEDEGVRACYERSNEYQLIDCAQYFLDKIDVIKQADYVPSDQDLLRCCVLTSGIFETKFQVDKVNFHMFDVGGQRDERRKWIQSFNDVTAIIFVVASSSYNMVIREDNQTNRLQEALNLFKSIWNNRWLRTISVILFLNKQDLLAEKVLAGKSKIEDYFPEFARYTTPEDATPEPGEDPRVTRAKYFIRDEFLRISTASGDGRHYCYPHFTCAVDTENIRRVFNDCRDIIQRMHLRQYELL
Chain of GDP-bound Gαs(R201C/C237S) (P63092 7-380 isoform P63092-2 R187C/C223S limits assumed): as above
Chain of Gαs(R201C) (P63092 7-380 isoform P63092-2 R187C limits assumed): as the sequence (P63092 7-380 isoform P63092-2 R187C/C223S limits assumed) above, with S217C counted along it

C=CC(=N)N [Acr, acrylamidine]
ability of Acr-modified Gαs(R201C/C237S) to activate adenylyl cyclase [1]: lowered to the same level as that of Gαs(C237S); also recorded: decreased
cysteines modified by Acr (Gαs(R201C/C237S) [2]): only Cys201 can be modified
cysteines modified by Acr (Gαs(R201C)): can modify Cys237 and Cys201
single turnover GTPase activity of the R201C/C237S mutant after modification of C201 by Acr (Gαs(R201C/C237S) [3]; FIG. 3C legend): increased the single turnover GTPase activity of the R201C/C237S mutant to a level close to that of the C237S mutant
kcat after Acr modification relative to that of Gαs(C237S) (Gαs(R201C/C237S) [3]; measured at 0° C.): about 30%
kcat of R201C/C237S mutant following Acr modification (Gαs(R201C/C237S) [3]; measured at 0° C.): 0.00785 ± 0.000717 s⁻¹
